Reference: US20230129258A1, “HETEROTANDEM BICYCLIC PEPTIDE COMPLEXES” (BicycleTx Limited, priority 2019, published 2023)

Tests used:
CD137 [1] = target: T1, CD137 (Homo sapiens, UniProt Q07011); test: CD137 reporter assay (Promega, Jurkat cells) in co-culture with PD-L1-expressing RKO cells; assay type: cell-based; set-up: host or cells: Jurkat reporter cells; details: read-out: Fold Induction over background
Description: Culture medium, referred to as R1 media, is prepared by adding 1% FBS to RPMI-1640 (component of Promega kit CS196005). Serial dilutions of test articles in R1 are prepared in a sterile 96 well-plate. Add 25 μL per well of test articles or R1 (as a background control) to designated wells in a white cell culture plate. Tumor cells* are harvested and resuspended at a concentration of 400,000 cells/mL in R1 media. Twenty five (25) μL/well of tumor cells are added to the white cell culture plate. Jurkat cells (Promega kit CS196005, 0.5 mL) are thawed in the water bath and then added to 5 ml pre-warmed R1 media. Twenty five (25) μL/well of Jurkat cells are then added to the white cell culture plate. Incubate the cells and test articles for 6 h at 37° C., 5% CO2. At the end of 6 h, add 75 μL/well Bio-Glo™ reagent (Promega) and incubate for 10 min before reading luminescence in a plate reader (Clariostar, BMG). The fold change relative to cells alone (Jurkat cells+Cell line used in co-culture) is calculated and plotted in GraphPad Prism as log(agonist) vs response to determine EC50 (nM) and Fold Induction over background (Max).
The tumor cell types used in co-culture for EphA2 are A549, PC3 and HT29. The tumor cell type used in co-culture for PD-L1 is RKO.

[2] = tested on: 5484 full-length human plasma membrane proteins and secreted proteins expressed in HEK293 cells; test: Retrogenix cell microarray off-target screening; assay type: binding; details: 1 μM test peptide
Description: Retrogenix microarray screening: Retrogenix's cell microarray technology was used to screen for specific off-target binding interactions of a biotinylated BCY11863 known as BCY13582.
Under these conditions, the test peptide was screened for binding against human HEK293 cells, individually expressing 5484 full-length human plasma membrane proteins and secreted proteins.
Each primary hit was re-expressed, along with two control receptors (TGFBR2 and EGFR), and re-tested with 1 μM BCY13582 test peptide, 1 μM BCY13582 test peptide in the presence of 100 μM BCY11863, and other positive and negative control treatments (FIG. 4). […] These were untethered and tethered forms of Nectin-4, and CD137—the primary targets.

[3] = tested on: TNF family receptors OX40 and CD40; test: CD137 paralogue screening by SPR; assay type: binding; details: streptavidin captured peptide, soluble receptors
Description: CD137 Paralogue screening: Binding of streptavidin captured BCY13582 (biotinylated-BCY11863) was assessed using SPR against soluble TNF family receptors OX40 and CD40.

CD137 [4] = target: T1, CD137; test: CD137 reporter assay (Promega CD137 luciferase reporter, Jurkat cells) in co-culture with Nectin-4-expressing tumor cells; assay type: cell-based; set-up: host or cells: Jurkat reporter cells; details: for EC50: Arithmetic mean EC50 (nM)
OX40 = target: T2, OX40 (Homo sapiens, UniProt P43489); test: Promega OX40 cell-activity assay (NF-kB luciferase, Jurkat) in co-culture with 4T1-D02 tumor cells; assay type: cell-based; details: co-culture with Nectin-4 positive 4T1-D02 cells
T2 construct: host or cells: OX40 Jurkat cells
T2 sequence (P43489 29-277): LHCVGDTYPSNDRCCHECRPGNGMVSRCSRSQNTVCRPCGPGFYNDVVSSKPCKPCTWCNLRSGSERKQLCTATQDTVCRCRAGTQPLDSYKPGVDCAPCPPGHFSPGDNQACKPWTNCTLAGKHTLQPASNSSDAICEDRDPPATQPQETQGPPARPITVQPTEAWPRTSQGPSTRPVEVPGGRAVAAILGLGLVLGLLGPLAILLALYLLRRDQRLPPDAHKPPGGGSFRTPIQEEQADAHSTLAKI
Description: Promega have developed an OX40 cell-activity assay that uses NF-κB luciferase luminescence as a read-out of OX40 activation in Jurkat cells (Promega CS197704). On the day of the experiment, prepare medium by thawing FBS and adding 5% FBS to RPMI-1640. Thaw OX40 Jurkat cells in the water-bath and then add 500 μl cells to 11.5 ml pre-warmed 5% FBS RPMI-1640 medium. Add 55 μl cells/well to white cell culture plates. Harvest tumor cells from culture. 4T1 is a Nectin-4 negative murine mammary gland epithelial cancer cell and it was genetically modified to express murine Nectin-4 on the cell surface (4T1 Nectin-4 positive; clone 411-D02). Tumor cells were cultured to 80% confluency in vitro in RPM11640 medium supplemented with 10% heat-inactivated FBS, 1× Penicillin/Streptomycin, 1× L-Glutamine, 20 mM HEPES and 1×NEAA (RPMI working medium). Tumor cells were trypsinized and washed two times at 1500 rpm for 5 minutes in RPM11640 working medium prewarmed to 37° C. Count cells and resuspend at 2,000,000 cells/mL in R5 media (for 10,000 cells/well). Add 5 μL of tumor cells per well. […]
Co-incubate cells together with agonists for 6 hours at 37° C., 5% CO2. […] Read luciferase signal on CLAIROStar plate-reader using the MARS program and normalize the fold induction relative to background (medium alone). […]

T1 sequence (Q07011 24-255): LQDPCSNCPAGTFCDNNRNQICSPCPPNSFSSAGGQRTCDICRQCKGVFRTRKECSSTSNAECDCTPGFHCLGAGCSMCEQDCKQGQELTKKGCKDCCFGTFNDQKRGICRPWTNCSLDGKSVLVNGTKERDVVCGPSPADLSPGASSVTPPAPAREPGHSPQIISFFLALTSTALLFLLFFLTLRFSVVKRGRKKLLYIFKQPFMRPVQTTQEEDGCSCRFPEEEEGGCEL

With `CCCC[C@@H]1NC(=O)[C@H](Cc2ccc(O)cc2)NC(=O)[C@@H]2CCCN2C(=O)[C@H](CC(=O)O)NC(=O)[C@H](C)NC(=O)[C@H](Cc2ccccc2)NC(=O)[C@@H]2CSCCC(=O)N3CN(CN(C3)C(=O)CCSC[C@@H](C(=O)N[C@@H](C)C(N)=O)NC1=O)C(=O)CCSC[C@H](NC(C)=O)C(=O)N[C@@H](CC(C)(C)C)C(=O)N1CCC[C@H]1C(=O)N[C@@H](CCC(=O)O)C(=O)N[C@H](CCCCNC(=O)CCc1cn(CCOCCOCCOCCOCCOCCOCCOCCOCCOCCOCCNC(=O)CCOCCN(CCOCCC(=O)NCCOCCOCCOCCOCCOCCOCCOCCOCCOCCOCCn3cc(CCC(=O)NCCCC[C@@H]4NC(=O)[C@H](CCC(N)=O)NC(=O)[C@@H]5CSCCC(=O)N6CN(CN(C6)C(=O)CCSC[C@@H](C(=O)N6CCC[C@H]6C(=O)N[C@@H](CO)C(=O)N[C@@H](Cc6c[nH]cn6)C(N)=O)NC(=O)[C@H](CC(C)C)NC(=O)[C@H](Cc6c[nH]cn6)NC(=O)[C@H](CC(C)C)NC4=O)C(=O)CCSC[C@H](NC(=O)[C@H](CCCCN)NC(=O)[C@H](CC(=O)O)NC(=O)[C@H](CO)NC(C)=O)C(=O)N[C@@H](CO)C(=O)N[C@@H](C)C(=O)NCC(=O)N[C@@H](Cc4c[nH]c6ccccc46)C(=O)N[C@@H](CC(C)C)C(=O)N[C@@H]([C@@H](C)O)C(=O)N[C@@H](CCSC)C(=O)N5)nn3)CCOCCC(=O)NCCOCCOCCOCCOCCOCCOCCOCCOCCOCCOCCn3cc(CCC(=O)NCCCC[C@H]4NC(=O)[C@H](CCC(=O)O)NC(=O)[C@@H]5CCCN5C(=O)[C@H](CC(C)(C)C)NC(=O)[C@@H](NC(C)=O)CSCCC(=O)N5CN6CN(C5)C(=O)CCSC[C@H](NC(=O)[C@H](Cc5ccc(O)cc5)NC(=O)[C@@H]5CCCN5C4=O)C(=O)N[C@@H](Cc4ccccc4)C(=O)N[C@@H](C)C(=O)N[C@@H](CC(=O)O)C(=O)N4CCC[C@H]4C(=O)N[C@@H](Cc4ccc(O)cc4)C(=O)N[C@@H](CCCC)C(=O)N[C@H](C(=O)N[C@@H](C)C(N)=O)CSCCC6=O)nn3)nn1)C(=O)N1CCC[C@H]1C(=O)N[C@@H](Cc1ccc(O)cc1)C(=O)N2` [BCY11780] the fold induction (CD137 [1]) was 13.

`CCCC[C@@H]1NC(=O)[C@H](Cc2ccc(O)cc2)NC(=O)[C@@H]2CCCN2C(=O)[C@H](CC(=O)O)NC(=O)[C@H](C)NC(=O)[C@H](Cc2ccccc2)NC(=O)[C@@H]2CSCCC(=O)N3CN(CN(C3)C(=O)CCSC[C@@H](C(=O)N[C@@H](C)C(N)=O)NC1=O)C(=O)CCSC[C@H](NC(C)=O)C(=O)N[C@@H](CC(C)(C)C)C(=O)N1CCC[C@H]1C(=O)N[C@@H](CCC(=O)O)C(=O)N[C@H](CCCCNC(=O)CCc1cn(CCOCCOCCOCCN(CCOCCOCCOCCC(=O)N[C@H]3CSCCC(=O)N4CN5CN(C4)C(=O)CCSC[C@H](NC(=O)[C@@H](CC(=O)O)NC(=O)[C@H](Cc4cccc6ccccc46)NC(=O)[C@@H]4CCCN4C3=O)C(=O)N[C@@H](CCSC)C(=O)N[C@@H](CCCCNC(=N)N)C(=O)N[C@@H](CC(=O)O)C(=O)N[C@@H](Cc3c[nH]c4ccccc34)C(=O)N[C@@H](CO)C(=O)N[C@@H]([C@@H](C)O)C(=O)N3CCC[C@H]3C(=O)N3C[C@H](O)C[C@H]3C(=O)N[C@@H](Cc3c[nH]c4ccccc34)C(=O)N[C@H](C(N)=O)CSCCC5=O)CCOCCOCCOCCn3cc(CCC(=O)NCCCC[C@H]4NC(=O)[C@H](CCC(=O)O)NC(=O)[C@@H]5CCCN5C(=O)[C@H](CC(C)(C)C)NC(=O)[C@@H](NC(C)=O)CSCCC(=O)N5CN6CN(C5)C(=O)CCSC[C@H](NC(=O)[C@H](Cc5ccc(O)cc5)NC(=O)[C@@H]5CCCN5C4=O)C(=O)N[C@@H](Cc4ccccc4)C(=O)N[C@@H](C)C(=O)N[C@@H](CC(=O)O)C(=O)N4CCC[C@H]4C(=O)N[C@@H](Cc4ccc(O)cc4)C(=O)N[C@@H](CCCC)C(=O)N[C@H](C(=O)N[C@@H](CCCCNC(=O)CCOCCOCCOCCOCCOCCOCCOCCOCCOCCOCCOCCOCCNC(=O)CCCC[C@@H]4SC[C@@H]5NC(=O)N[C@@H]54)C(N)=O)CSCCC6=O)nn3)nn1)C(=O)N1CCC[C@H]1C(=O)N[C@@H](Cc1ccc(O)cc1)C(=O)N2` [BCY13582] was tested, and the specific off-target interactions [2] was “No specific off-target interactions”, the “binding to OX40 and CD40: concentration up to which no binding was seen” value [3] was > 100 nM and the EC50 (CD137 [4]; co-culture with HT1376 (human), Table 1B) was 0.58 ± 0.27 nM. For the same compound, the EC50 (CD137 [4]; co-culture with MDA-MB-468 (human)) was 0.34 ± 0.02 nM and the Emax (CD137 [4]; co-culture with HT1376, Table 2A) was 57 fold induction over background.

With `CSCC[C@@H]1NC(=O)[C@@H]2CSCCC(=O)N3CN(CN(C3)C(=O)CCSC[C@H](NC(=O)CCOCCOCCOCCN(CCOCCOCCOCCn3cc(CCC(=O)NCCCC[C@H](NC(=O)[C@H](C)NC(=O)[C@@H]4CSCCC(=O)N5CN6CN(C5)C(=O)CCSC[C@H](NC(=O)[C@@H]5CCCN5C(=O)[C@H](CO)NC(=O)[C@H](Cc5ccc(O)cc5)NC(=O)[C@H](CC(C)C)NC(=O)[C@@H](NC(=O)[C@H](C)N)CSCCC6=O)C(=O)N[C@@H](Cc5c[nH]c6ccccc56)C(=O)N[C@@H](Cc5c[nH]cn5)C(=O)N5CCC[C@H]5C(=O)N[C@@H](CC(C)C)C(=O)N[C@@H](CC(N)=O)C(=O)N[C@@H](CC(=O)O)C(=O)N4)C(N)=O)nn3)CCOCCOCCOCCn3cc(CCC(=O)NCCCC[C@H](NC(=O)[C@H](C)NC(=O)[C@@H]4CSCCC(=O)N5CN6CN(C5)C(=O)CCSC[C@H](NC(=O)[C@@H]5CCCN5C(=O)[C@H](CO)NC(=O)[C@H](Cc5ccc(O)cc5)NC(=O)[C@H](CC(C)C)NC(=O)[C@@H](NC(=O)[C@H](C)N)CSCCC6=O)C(=O)N[C@@H](Cc5c[nH]c6ccccc56)C(=O)N[C@@H](Cc5c[nH]cn5)C(=O)N5CCC[C@H]5C(=O)N[C@@H](CC(C)C)C(=O)N[C@@H](CC(N)=O)C(=O)N[C@@H](CC(=O)O)C(=O)N4)C(N)=O)nn3)C(=O)N3CCC[C@H]3C(=O)N[C@@H](Cc3cccc4ccccc34)C(=O)N[C@H](CC(=O)O)C(=O)N2)C(=O)CCSC[C@@H](C(N)=O)NC(=O)[C@H](Cc2c[nH]c3ccccc23)NC(=O)[C@@H]2C[C@@H](O)CN2C(=O)[C@@H]2CCCN2C(=O)[C@H]([C@@H](C)O)NC(=O)[C@H](CO)NC(=O)[C@H](Cc2c[nH]c3ccccc23)NC(=O)[C@H](CC(=O)O)NC(=O)[C@H](CCCCNC(=N)N)NC1=O` [BCY12967] the OX40 agonism (OX40) was “potent OX40 agonism”.
